Values after ≈ are worked out from the molar mass of the structure shown.
Assays:
B. cereus ATCC 11778 = test: MIC, NCCLS broth microdilution assay; assay type: cell-based, Bacillus cereus; details: B. cereus ATCC 11778
C. albicans ATCC 38247 = test: MIC, antifungal assay; assay type: cell-based, Candida albicans; details: C. albicans ATCC 38247
E. faecalis ATCC 29212 = test: MIC, NCCLS broth microdilution assay; assay type: cell-based, Enterococcus faecalis; details: E. faecalis ATCC 29212
S. aureus ATCC 13709 = test: MIC, NCCLS broth microdilution assay; assay type: cell-based, Staphylococcus aureus; details: S. aureus ATCC 13709, methicillin sensitive strain (MSSA)
S. aureus ATCC 27660 = test: MIC, NCCLS broth microdilution assay; assay type: cell-based, Staphylococcus aureus; details: S. aureus ATCC 27660, methicillin resistant strain (MRSA)
S. aureus ATCC 33591 = test: MIC, NCCLS broth microdilution assay; assay type: cell-based, Staphylococcus aureus; details: S. aureus ATCC 33591
[1] = system: S. epidermidis ATCC 12228; test: MIC, NCCLS broth microdilution assay; assay type: cell-based, Staphylococcus epidermidis
S. pneumoniae ATCC 49619 = test: MIC, NCCLS broth microdilution assay; assay type: cell-based, Streptococcus pneumoniae; details: S. pneumoniae ATCC 49619
E. coli ATCC 25922 = test: MIC, NCCLS broth microdilution assay; assay type: cell-based, Escherichia coli; details: E. coli ATCC 25922
[2] = system: E. faecium (ATCC 51559, VRE); details: E. faecium ATCC 51559, vancomycin resistant strain (VRE)
Excerpt: (§1) In vitro biological activity data were collected for a variety of microorganisms, including Bacillus cereus (ATCC 11778), Staphylococcus aureus (ATCC 33591; ATCC 27660, a methicillin resistant strain (MRSA); ATCC 13709, a methicillin sensitive strain (MSSA)), Escherichia coli (ATCC 25922), Enterococcus faecalis (ATCC 29212), Streptococcus pneumoniae (ATCC 49619; ATCC 51422, a penicillin resistant strain (PRSP)), Enterococcus faecium (ATCC 51559, a vancomycin resistant strain (VRE)), and Staphylococcus epidermidis (ATCC 12228). Additionally, antifungal activity data were collected for Candida albicans (ATCC 38247).
(§2) Compounds according to this invention were screened for their in vitro activities against selected species of bacteria and fungi. The minimal inhibition concentration (MIC) of these compounds was determined using the National Committee for Clinical Laboratory Standards (NCCLS) broth microdilution assay in microtiter plates, as set forth in: (1) the guidelines of the National Committee for Clinical Laboratory Standards (NCCLS) Document M7-A4 (NCCLS, 1997); (2) the guidelines of the National Committee for Clinical Laboratory Standards (NCCLS) Document M11-A4 (NCCLS, 1997); and (3) the guidelines and reference method of the National Committee for Clinical Laboratory Standards (NCCLS) Document M27 -T (NCCLS, 1995). For antifungal assays, the method recommended in Murray, PR., 1995 Manual of Clinical Microbiology (ASM Press, Washington, D.C.), was employed.
(§3) (MIC values are keyed in the same manner as Table B.)

[3] = system: S. pneumoniae (ATCC 51422, PRSP); details: S. pneumoniae ATCC 51422, penicillin resistant strain (PRSP)
Excerpt: as §1, §2, §3

Structure (SMILES)	Minimum Inhibitory Concentration (MIC) (B. cereus ATCC 11778)	Minimum Inhibitory Concentration (MIC) (C. albicans ATCC 38247)	Minimum Inhibitory Concentration (MIC) (E. faecalis ATCC 29212)	Minimum Inhibitory Concentration (MIC) (S. aureus ATCC 13709)	Minimum Inhibitory Concentration (MIC) (S. aureus ATCC 27660)	Minimum Inhibitory Concentration (MIC) (S. aureus ATCC 33591)	Minimum Inhibitory Concentration (MIC) [1]	Minimum Inhibitory Concentration (MIC) (S. pneumoniae ATCC 49619)	Minimum Inhibitory Concentration (MIC) (E. coli ATCC 25922)	Minimum Inhibitory Concentration (MIC) [2]	Minimum Inhibitory Concentration (MIC) [3]	MIC (B. cereus ATCC 11778; Bacillus cereus, ATCC11778, read-out: Minimum Inhibitory Concentration (MIC))	MIC (C. albicans ATCC 38247; Candida albicans, ATCC38247, read-out: Minimum Inhibitory Concentration (MIC))	MIC (E. faecalis ATCC 29212; Enterococcus faecalis, ATCC29212, read-out: Minimum Inhibitory Concentration (MIC))	MIC (S. aureus ATCC 13709; Staphylococcus aureus, ATCC 13709 / MSSA, read-out: Minimum Inhibitory Concentration (MIC))	MIC (S. aureus ATCC 27660; Staphylococcus aureus, ATCC 27660 / MRSA, read-out: Minimum Inhibitory Concentration (MIC))	MIC (S. aureus ATCC 33591; Staphylococcus aureus, ATCC33591, read-out: Minimum Inhibitory Concentration (MIC))	MIC ([1]; Staphylococcus epidermidis, ATCC12228, read-out: Minimum Inhibitory Concentration (MIC))	MIC (E. coli ATCC 25922; Escherichia coli, ATCC25922, read-out: Minimum Inhibitory Concentration (MIC))
Cc1ccc2nc(-c3ccc(NC(=O)c4nsc(NCCCN)c4Cl)cc3)sc2c1 [Compound A-53]	+++ (MIC ≦ 4)	>32 µg/mL	+++ (MIC ≦ 4)	+++ (MIC ≦ 4)	+++ (MIC ≦ 4)	+++ (MIC ≦ 4)	+++ (MIC ≦ 4)	>32 µg/mL	>32 µg/mL	+++ (MIC ≦ 4)	+ (12 ≦ MIC ≦ 32)								
CN(C)CCCNc1snc(C(=O)Nc2ccc(-c3cc4ccccc4o3)cc2)c1Cl [Compound A-7]	+++ (MIC ≦ 4)	++ (4 < MIC < 12)	+++ (MIC ≦ 4)	+++ (MIC ≦ 4)	+++ (MIC ≦ 4)	+++ (MIC ≦ 4)	+++ (MIC ≦ 4)	+ (12 ≦ MIC ≦ 32)	>32 µg/mL	+++ (MIC ≦ 4)	+ (12 ≦ MIC ≦ 32)								
Cc1cc(NC(=O)c2nsc(NCCN3CCCCC3)c2Cl)ccc1-c1cc2ccccc2o1 [Compound A-32]												> 32 µg/mL	4 to 12 µg/mL (≈ 8.08 to 24.2 µM)	< 4 µg/mL	< 4 µg/mL	< 4 µg/mL	< 4 µg/mL	< 4 µg/mL	12 to 32 µg/mL (≈ 24.2 to 64.6 µM)
CN(CCCN)CCCNc1snc(C(=O)Nc2ccc(-c3cc4ccccc4o3)cc2)c1Cl [Compound A-8]	+++ (MIC ≦ 4)	++ (4 < MIC < 12)	+++ (MIC ≦ 4)	+++ (MIC ≦ 4)	+++ (MIC ≦ 4)	+++ (MIC ≦ 4)	+++ (MIC ≦ 4)	+ (12 ≦ MIC ≦ 32)	+ (12 ≦ MIC ≦ 32)										
CN(C)CCCNc1ncccc1C(=O)Nc1ccc(-c2cc3ccccc3o2)cc1 [Compound A-11]	+++ (MIC ≦ 4)	+++ (MIC ≦ 4)	+++ (MIC ≦ 4)	+++ (MIC ≦ 4)	+++ (MIC ≦ 4)	+++ (MIC ≦ 4)	+++ (MIC ≦ 4)	+ (12 ≦ MIC ≦ 32)	>32 µg/mL	+++ (MIC ≦ 4)	+ (12 ≦ MIC ≦ 32)								
O=C(Nc1ccc(-c2cc3ccccc3s2)cc1)c1cccnc1NCCN1CCCC1 [Compound A-49]	+++ (MIC ≦ 4)	+++ (MIC ≦ 4)	+++ (MIC ≦ 4)	+++ (MIC ≦ 4)	+++ (MIC ≦ 4)	+++ (MIC ≦ 4)	+++ (MIC ≦ 4)	+ (12 ≦ MIC ≦ 32)	>32 µg/mL										
CN(C)CCCNc1ncccc1C(=O)Nc1ccc(-c2cc3ccccc3s2)cc1 [Compound A-50]	+++ (MIC ≦ 4)	+++ (MIC ≦ 4)	+++ (MIC ≦ 4)	+++ (MIC ≦ 4)	+++ (MIC ≦ 4)	+++ (MIC ≦ 4)	+++ (MIC ≦ 4)	+ (12 ≦ MIC ≦ 32)	>32 µg/mL										
CN(C)CCCNc1snc(C(=O)Nc2ccc(-c3cc4ccccc4s3)cc2)c1Cl [Compound A-47]	>32 µg/mL	+++ (MIC ≦ 4)	+++ (MIC ≦ 4)	+++ (MIC ≦ 4)	+++ (MIC ≦ 4)	+++ (MIC ≦ 4)	+++ (MIC ≦ 4)	>32 µg/mL	>32 µg/mL										
NCCNc1ncccc1C(=O)Nc1ccc(-c2cc3ccccc3o2)cc1 [Compound A-19]	+++ (MIC ≦ 4)	++ (4 < MIC < 12)	+++ (MIC ≦ 4)	+++ (MIC ≦ 4)	+++ (MIC ≦ 4)	+++ (MIC ≦ 4)	+++ (MIC ≦ 4)	+ (12 ≦ MIC ≦ 32)	>32 µg/mL										
NCCCCNc1ncccc1C(=O)Nc1ccc(-c2cc3ccccc3o2)cc1 [Compound A-18]	+++ (MIC ≦ 4)	++ (4 < MIC < 12)	++ (4 < MIC < 12)	+++ (MIC ≦ 4)	+++ (MIC ≦ 4)	+++ (MIC ≦ 4)	+++ (MIC ≦ 4)	+++ (MIC ≦ 4)	>32 µg/mL										
